In US9951038B2, “Quinazolin-4(3H)-one-type piperidine compounds and uses thereof” (Purdue Pharma L.P., priority 2012, dated 2018):

Experiments:
Nociceptin receptor = Nociceptin receptor (Homo sapiens, UniProt P41146); assay: biochemical
CYP2D6 = target: T1, CYP2D6 (Homo sapiens, UniProt P10635); assay: Cytochrome P450 inhibition, pooled human hepatic microsome, CYP2D6 (dextromethorphan O-demethylation); type: in vitro ADME; conditions: 5 μmol/L dextromethorphan, 15 min, 37° C.
T1 construct: using commercially available pooled human hepatic microsome; from tissue; host or cells: pooled human hepatic microsomes
T1 sequence (P10635 whole entry): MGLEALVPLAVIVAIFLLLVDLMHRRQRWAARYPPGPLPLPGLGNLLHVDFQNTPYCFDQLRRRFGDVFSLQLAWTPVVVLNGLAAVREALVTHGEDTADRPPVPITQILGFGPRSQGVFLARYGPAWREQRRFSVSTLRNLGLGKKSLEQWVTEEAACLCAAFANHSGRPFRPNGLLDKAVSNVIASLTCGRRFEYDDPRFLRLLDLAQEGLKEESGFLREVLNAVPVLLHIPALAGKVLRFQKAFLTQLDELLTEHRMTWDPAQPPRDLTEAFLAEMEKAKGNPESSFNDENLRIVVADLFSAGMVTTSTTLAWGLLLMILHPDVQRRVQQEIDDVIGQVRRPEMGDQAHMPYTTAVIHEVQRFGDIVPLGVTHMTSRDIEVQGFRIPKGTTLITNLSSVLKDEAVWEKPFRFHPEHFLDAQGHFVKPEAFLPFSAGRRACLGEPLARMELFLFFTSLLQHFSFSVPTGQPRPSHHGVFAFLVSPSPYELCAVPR

CYP1A2 = target: T2, CYP1A2 (Homo sapiens, UniProt P05177); assay: Cytochrome P450 inhibition, pooled human hepatic microsome, CYP1A2; type: in vitro ADME
T2 sequence (P05177 1-516): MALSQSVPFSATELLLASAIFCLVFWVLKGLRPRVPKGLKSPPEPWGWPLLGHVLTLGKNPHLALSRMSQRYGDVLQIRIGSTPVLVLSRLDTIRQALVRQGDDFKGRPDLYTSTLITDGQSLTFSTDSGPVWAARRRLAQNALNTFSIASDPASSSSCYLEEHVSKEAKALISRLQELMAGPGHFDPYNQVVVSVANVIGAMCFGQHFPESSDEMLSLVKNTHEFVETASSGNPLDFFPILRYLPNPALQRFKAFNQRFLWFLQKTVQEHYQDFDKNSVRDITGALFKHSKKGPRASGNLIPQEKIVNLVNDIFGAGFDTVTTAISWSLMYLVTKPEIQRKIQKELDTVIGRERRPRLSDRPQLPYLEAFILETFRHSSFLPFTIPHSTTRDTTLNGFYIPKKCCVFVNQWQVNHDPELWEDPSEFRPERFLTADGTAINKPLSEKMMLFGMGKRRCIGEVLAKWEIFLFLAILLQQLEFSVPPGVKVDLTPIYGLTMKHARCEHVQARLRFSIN

CYP3A4 = target: T3, CYP3A4 (Homo sapiens, UniProt P08684); assay: Cytochrome P450 inhibition, pooled human hepatic microsome, CYP3A4; type: in vitro ADME
T3 construct: using commercially available pooled human hepatic microsome; from tissue; host or cells: pooled human hepatic microsomes
T3 sequence (P08684 whole entry): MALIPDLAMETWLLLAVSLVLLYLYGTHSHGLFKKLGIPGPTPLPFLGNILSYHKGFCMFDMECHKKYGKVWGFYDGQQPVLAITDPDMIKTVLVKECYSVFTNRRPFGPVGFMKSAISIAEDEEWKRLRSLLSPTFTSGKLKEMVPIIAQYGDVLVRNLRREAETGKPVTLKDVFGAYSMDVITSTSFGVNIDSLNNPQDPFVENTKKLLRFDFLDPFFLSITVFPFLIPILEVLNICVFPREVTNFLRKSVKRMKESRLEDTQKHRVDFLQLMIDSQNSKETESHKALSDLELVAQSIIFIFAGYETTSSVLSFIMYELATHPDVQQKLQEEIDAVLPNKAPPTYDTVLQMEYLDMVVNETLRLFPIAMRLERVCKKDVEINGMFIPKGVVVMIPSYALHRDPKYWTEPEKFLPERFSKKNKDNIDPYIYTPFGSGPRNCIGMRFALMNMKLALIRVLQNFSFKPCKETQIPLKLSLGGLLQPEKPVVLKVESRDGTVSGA

CYP2C9 = target: T4, CYP2C9 (Homo sapiens, UniProt P11712); assay: Cytochrome P450 inhibition, pooled human hepatic microsome, CYP2C9; type: in vitro ADME
T4 construct: using commercially available pooled human hepatic microsome; from tissue; host or cells: pooled human hepatic microsomes
T4 sequence (P11712 whole entry): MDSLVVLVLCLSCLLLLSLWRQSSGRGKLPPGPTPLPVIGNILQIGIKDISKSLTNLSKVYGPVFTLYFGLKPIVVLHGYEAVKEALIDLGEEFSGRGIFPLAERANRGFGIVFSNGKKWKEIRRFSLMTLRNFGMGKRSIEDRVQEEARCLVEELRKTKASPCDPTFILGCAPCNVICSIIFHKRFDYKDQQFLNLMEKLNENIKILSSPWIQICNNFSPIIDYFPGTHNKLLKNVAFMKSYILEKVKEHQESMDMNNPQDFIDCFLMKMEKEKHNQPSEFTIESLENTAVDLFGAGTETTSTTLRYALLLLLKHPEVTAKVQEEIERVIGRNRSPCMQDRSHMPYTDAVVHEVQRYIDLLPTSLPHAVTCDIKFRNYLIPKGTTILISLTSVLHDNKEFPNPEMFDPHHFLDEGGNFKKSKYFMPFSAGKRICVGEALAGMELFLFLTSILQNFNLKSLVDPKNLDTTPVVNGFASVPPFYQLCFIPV

[1] = target: human opioid receptor-like (ORL-1) (Homo sapiens, UniProt P41146); assay: In vitro ORL-1 receptor [35S]GTPγS functional assay; type: biochemical; conditions: for Emax: read-out: ORL-1 GTPγS Emax
human opioid receptor-like (ORL-1), sequence (P41146 whole entry): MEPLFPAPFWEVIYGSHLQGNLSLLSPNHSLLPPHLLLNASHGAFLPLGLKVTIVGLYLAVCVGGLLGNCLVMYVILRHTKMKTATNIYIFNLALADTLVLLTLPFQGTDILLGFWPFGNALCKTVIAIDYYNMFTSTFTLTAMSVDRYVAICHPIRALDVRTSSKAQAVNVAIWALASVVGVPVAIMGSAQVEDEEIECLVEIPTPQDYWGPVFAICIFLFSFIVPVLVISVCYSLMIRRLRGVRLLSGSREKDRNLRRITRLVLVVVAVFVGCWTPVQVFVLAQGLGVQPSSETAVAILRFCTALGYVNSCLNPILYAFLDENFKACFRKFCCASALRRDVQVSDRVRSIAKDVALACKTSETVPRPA

Nociceptin receptor, sequence (P41146 whole entry, looked up): as the sequence (P41146 whole entry) above

| Compound | Ki (Nociceptin receptor) [µM] | IC50 (CYP2D6) [µM] | IC50 (CYP1A2) [µM] | IC50 (CYP3A4) [µM] | IC50 (CYP2C9) [µM] | EC50 [1] [µM] | Emax [1] [%] |
| --- | --- | --- | --- | --- | --- | --- | --- |
| CCC1C[C@@H]2CC(N3[C@@H]4CCC[C@H]3CC(n3c(=O)c5ccccc5n(CC(=O)O)c3=O)C4)C[C@H](C1)C2 (stereo partly drawn) [24 (D459a), 2-(3-((1R,1′R,3r,3′R,5S,5′S)-7-ethyl-[3,9′-bi(9′-azabicyclo[3.3.1]nonan)]-3′-yl)-2,4-dioxo-3,4-dihydroquinazolin-1(2H)-yl)acetic acid] | 0.229 | 18.7 | > 20 | 5.8 | > 20 | > 20 | – |
| O=C(O)Cn1c(=O)n(C2C[C@H]3CCC[C@@H](C2)N3C2C[C@H]3CCC[C@@H](C2)C3)c(=O)c2ccccc21 (stereo partly drawn) [15 (D3a), 2-(3-((1R,1′R,3r,3′R,5S,5′S)-[3,9′-bi(9′-azabicyclo[3.3.1]nonan)]-3′-yl)-2,4-dioxo-3,4-dihydroquinazolin-1(2H)-yl)acetic acid] | – | > 20 | > 20 | > 20 | > 20 | > 20 | – |
| O=c1[nH]c2ccccc2c(=O)n1C1C[C@H]2CCC[C@@H](C1)N2C1C[C@H]2CCC[C@@H](C1)C2 (stereo partly drawn) [12 (D1a)] | – | 8.9 | > 20 | > 20 | > 20 | > 20 | 1.33 ± 0.33 |
| O=C(O)CNC(=O)Cn1c(=O)n(C2C[C@H]3CCC[C@@H](C2)N3C2C[C@H]3CCC[C@@H](C2)C3)c(=O)c2ccccc21 (stereo partly drawn) [18 (D28a), 2-(2-(3-((1R,1′R,3r,3′R,5S,5′S)-[3,9′-bi(9′-azabicyclo[3.3.1]nonan)]-3′-yl)-2,4-dioxo-3,4-dihydroquinazolin-1(2H)-yl)acetamido)acetic acid] | – | 1.6 | > 20 | > 20 | > 20 | > 20 | 1 |
| O=C(O)Cn1c(=O)n(C2C[C@H]3CCC[C@@H](C2)N3C2C[C@H]3CCCC[C@@H](C2)C3)c(=O)c2ccccc21 (stereo partly drawn) [21 (J3a), 2-(3-((1R,3R,5S)-9-((1R,6S,8r)-bicyclo[4.3.1]decan-8-yl)-9-azabicyclo[3.3.1]nonan-3-yl)-2,4-dioxo-3,4-dihydroquinazolin-1(2H)-yl)acetic acid] | – | > 20 | 5.5 | 2.3 | > 20 | > 20 | – |
| O=C(O)c1nc2ccccc2c(=O)n1C1C[C@H]2CCC[C@@H](C1)N2C1C[C@H]2CCC[C@@H](C1)C2 (stereo partly drawn) [9 (D2b), 3-((1R,1′R,3R,3′R,5S,5′S)-[3,9′-bi(9′-azabicyclo[3.3.1]nonan)]-3′-yl)-4-oxo-3,4-dihydroquinazoline-2-carboxylic acid] | – | 2.6 | > 20 | > 20 | > 20 | > 20 | 1 |
| CCOC(=O)c1nc2ccccc2c(=O)n1C1C[C@H]2CCC[C@@H](C1)N2C1C[C@H]2CCC[C@@H](C1)C2 (stereo partly drawn) [8 (D12b), ethyl 3-((1R,1′R,3R,3′R,5S,5′S)-9′-aza[3,9′-bi(bicyclo[3.3.1]nonan)]-3′-yl)-4-oxo-3,4-dihydroquinazoline-2-carboxylate] | 0.252 | 9.7 | > 20 | 6.5 | > 20 | – | – |
